# Data taken from patent EP0795549A1, “Bis-aryloxy(amino)-triazinyl-oxy(amino)aryl derivatives, their preparation and their use as antiviral agents” (American Cyanamid Company, priority 1996, dated 1997).
# Key:
# CMV (Ad169) = test: viral yield reduction (growth inhibition) assay, CMV; assay type: cell-based, Cytomegalovirus; details: Table 1a, HF, format not given
# Procedure: (§1) The compounds were tested for biological activity using viral yield reduction assays. Host cells (indicated as HF for human foreskin fibroblasts and as vero, the commonly used African green monkey cell line, in Tables 1 and 1a) were plated at 4 x 10^4 cells/well in cell growth medium with 2% fetal bovine serum or 2% calf serum in 96-well plates (0.1 ml/well) and incubated overnight. The compounds were added to individual wells to give final concentrations ranging from 50 to 0.1 µg/ml in two-fold concentration steps. After 1 hour, virus was added, and the incubation was continued for 4 days with RSV or CMV and for 2 days with HSV. At the end of the experiment, the amount of virus growth was quantitated and the yield reduction at various concentrations of compound was calculated. This allows estimation of the concentration of compound giving 50% reduction in virus growth (IC50).
# RSV (A2) = test: viral yield reduction (growth inhibition) assay, RSV; assay type: cell-based, Respiratory Syncitial Virus; details: Table 1a; for Antiviral IC50 µg/ml RSV/ HF: yield reduction or plaque format not specified; for Antiviral IC50 µg/ml RSV/ Vero: format not given
# Procedure: as §1
# [1] = system: human foreskin fibroblasts (HF); test: effect on cells: appearance of fixed, crystal violet-stained monolayer (HF); assay type: cell-based; set-up: key: N, no effect on the appearance of the alcohol-fixed and crystal violet-stained cell monolayer at the indicated compound concentration.; L, lightening of the intensity of staining (compared to controls) of the alcohol-fixed and crystal violet-stained cell monolayer at the indicated compound concentration but not at half that concentration; details: at 75 µg/ml
# vero cells = test: effect on cells: appearance of fixed, crystal violet-stained monolayer (vero); assay type: cell-based, African green monkey; set-up: key: N, no effect on the appearance of the alcohol-fixed and crystal violet-stained cell monolayer at the indicated compound concentration.; L, lightening of the intensity of staining (compared to controls) of the alcohol-fixed and crystal violet-stained cell monolayer at the indicated compound concentration but not at half that concentration; details: at 75 µg/ml
# HSV1 (Patton) = test: viral yield reduction (growth inhibition) assay, HSV; assay type: cell-based, Herpes Simplex Virus; details: Table 1a; HSV1 (Patton), vero; format not given
# Procedure: as §1
substance,measurement,setting,value
"1,2',1'',1'''-[(2,2'-disulfo[1,1'-biphenyl]-4,4'-diyl)-bis[imino-1,3,5-triazine-6,2,4-triylbis(imino-3,1-phenylenesulfonyl)]tetrakis[3,5-piperidinedicarboxylic acid [Example 54]",Antiviral IC50 µg/ml CMV /HF,CMV (Ad169),>50 µg/mL
same,Antiviral IC50 µg/ml RSV/ HF,RSV (A2),35 µg/mL
same,Antiviral IC50 µg/ml RSV/ Vero,RSV (A2),>50 µg/mL
same,Effect on cells @ µg/ml indicated HF,[1],N@75
"4',4-Bis-{4,6-bis-[3-(3,5-dicarbamoyl-piperidine-1-sulfonyl)-phenylamino]-[1,3,5]triazin-2-ylamino}-biphenyl-2,2'disulfonic acid, disodium salt [Example 53]",Effect on cells @ µg/ml indicated Vero,vero cells,N@75
same,Antiviral IC50 µg/ml HSV Vero,HSV1 (Patton),>50 µg/mL
same,Antiviral IC50 µg/ml RSV/ HF,RSV (A2),2 µg/mL
same,Antiviral IC50 µg/ml RSV/ Vero,RSV (A2),7 µg/mL
same,Effect on cells @ µg/ml indicated HF,[1],N@75
"4',4-Bis-{4,6-bis-[3-(bis-carbamoylmethyl-1-sulfamoyl)-phenylamino]-[1,3,5]triazin-2-ylamino}-biphenyl-2,2'-disulfonic acid, disodium salt [Example 43]",Effect on cells @ µg/ml indicated Vero,vero cells,N@75
same,Antiviral IC50 µg/ml CMV /HF,CMV (Ad169),2.5 µg/mL
same,Antiviral IC50 µg/ml HSV Vero,HSV1 (Patton),6 µg/mL
same,Antiviral IC50 µg/ml RSV/ HF,RSV (A2),0.1 µg/mL
same,Effect on cells @ µg/ml indicated HF,[1],N@75
"4,4'-Bis-(4,6-bis-{3-[bis-(2-methylcarbamoyl-ethyl)-sulfamoyl]-phenylamino}-[1,3,5]triazin-2-ylamino)-biphenyl-2,2'-dicarboxylic acid, disodium salt [Example 35]",Effect on cells @ µg/ml indicated Vero,vero cells,N@75
same,Antiviral IC50 µg/ml CMV /HF,CMV (Ad169),>50 µg/mL
same,Antiviral IC50 µg/ml HSV Vero,HSV1 (Patton),>50 µg/mL
same,Antiviral IC50 µg/ml RSV/ HF,RSV (A2),6 µg/mL
"4,4'-Bis-(4,6-bis{3-[bis-(2-carbamoyl-ethyl)-sulfamoyl]-phenylamino}- 1,3,5-triazin-2-ylamino]-biphenyl-2,2'-dicarboxylic acid, disodium salt [Example 30]",Antiviral IC50 µg/ml CMV /HF,CMV (Ad169),40 µg/mL
same,Antiviral IC50 µg/ml HSV Vero,HSV1 (Patton),>50 µg/mL
same,Antiviral IC50 µg/ml RSV/ HF,RSV (A2),0.35 µg/mL
same,Effect on cells @ µg/ml indicated HF,[1],N@75
